Measurements as given in patent US20120258141A9, “Methods Of Immune Modulation” (UNIVERSITY OF MEDICINE AND DENTISTRY OF NEW JERSEY, priority 2010, published 2012).
In brackets after ≈: the same amount, converted by molar mass. Entries after “also recorded” stand apart in the source; their conditions may differ.

What was measured:
[1] = tested on: IL-8 secretion, THP-1 cells; assay: IL-1β-induced IL-8 secretion (ELISA) in THP-1 cells; format: cell-based, Human
Experimental: (§1) The oral keratinocyte cell line OKF6/TERT (obtained from Dr. James Rhinewald, Harvard University) was cultured in Keratinocyte growth medium (Lonza) with hEGF, BPE (Bovine Pituitary Extract). Cells were subcultured in 6-well dishes 18 hours before stimulation. Cells were treated with 2 μg/mL, 5 μg/mL mPE with and without IL-1β stimulation (100 ng/mL, […]) for 2 hours, 4 hours and 18 hours. THP-1 cells were grown in suspension at RPMI 1640 with 10% FBS, and stimulated similarly.
(§2) Growth medium from stimulated cultures was collected either by aspiration (from keratinocytes) or after centrifugation at 1000 rpm for 15 minutes (for THP-1 cells). Cell debris was removed by centrifugation at 8,000 g (12,000 rpm) for 10 minutes at 4° C. To quantify IL-8 levels, the Human IL-8 Single Analyte ELISArray Kit (SA bioscience, MD) was used according to the manufacturer's protocol. The Cellular Activation of Signaling ELISA kit IKBα (SA bioscience, MD) was used to quantify both phosphorylated and whole IkBα levels in OKF6/TERT cells grown in a 96-well plate. All assays were performed in duplicate.
(§3) To examine the effect of mPE on the inflammatory response, gingival epithelial cells (the OKF6/TERT cell line) and the monocytic cell line, THP-1, were treated with rhIL-1β (100 ng/ml) in the presence of increasing concentrations (0, 2, or 5 ng/ml) of mPE. Secreted levels of IL-8 were measured by ELISA. […]

[2] = tested on: OKF6/TERT and THP-1 cells; assay: Cell viability by XTT assay and trypan blue exclusion; format: cell-based, Human; settings: highest concentration of mPE
Experimental: To examine the effect of mPE on the inflammatory response, gingival epithelial cells (the OKF6/TERT cell line) and the monocytic cell line, THP-1, were treated with rhIL-1β (100 ng/ml) in the presence of increasing concentrations (0, 2, or 5 ng/ml) of mPE. Secreted levels of IL-8 were measured by ELISA. […] The experiment was carried out in quadruplicate; error bars represent±SD. The inhibition by mPE was significant at both concentrations with p<0.01. […] This was not a result of cytotoxicity, as cell viability (as measured by XTT assay and trypan blue exclusion) was no lower than 93-96% at the highest concentration of mPE. To determine whether this was due to an effect on IL-8 secretion or on gene regulation, mRNA was isolated from treated cells IL-8 mRNA levels were quantified by QPCR.

A. actinomycetemcomitans = settings: planktonic form; cited from earlier work
P. gingivalis = settings: planktonic form; cited from earlier work
[3] = tested on: phosphorylated IκB / NF-κB activation; assay: IκB phosphorylation (CASE ELISA) in OKF6/TERT cells; format: cell-based, Human; settings: 100 ng/ml IL-1β, 2 or 4 hours, 0, 2 or 5 μg/ml mPE, FIG. 4B
Experimental: Growth medium from stimulated cultures was collected either by aspiration (from keratinocytes) or after centrifugation at 1000 rpm for 15 minutes (for THP-1 cells). Cell debris was removed by centrifugation at 8,000 g (12,000 rpm) for 10 minutes at 4° C. To quantify IL-8 levels, the Human IL-8 Single Analyte ELISArray Kit (SA bioscience, MD) was used according to the manufacturer's protocol. The Cellular Activation of Signaling ELISA kit IKBα (SA bioscience, MD) was used to quantify both phosphorylated and whole IkBα levels in OKF6/TERT cells grown in a 96-well plate. All assays were performed in duplicate. OKF6/TERT cells were treated with mPE as above in the presence or absence of IL-1β. Total mRNA was isolated and IL-8 and hBD-2 mRNA levels were quantified by QPCR normalized to β2-Microglobulin. Levels are shown relative to the no-mPE sample for each group. The experiment was carried out in triplicate; error bars represent±SD. […] To determine whether this was due to an inhibition of NF-κB activation, gingival epithelial cells were treated with mPE in the presence or absence of 100 ng/ml IL-1β, and IκB phosphorylation levels were quantified using the CASE assay (SA Biosciences, MD), and quantified relative to total IκB levels). In particular, OKF6/TERT cells were grown in 96-well plates, treated with 100 ng/ml IL-1β for 2 or 4 hours in the presence of 0, 2 or 5 μg/ml mPE. […]

[4] = tested on: LPS-mediated TNF-α production, macrophage cell line; settings: macrophage cells; cited from earlier work
[5] = tested on: IL-8 secretion, OKF6/TERT cell line; assay: IL-1β-induced IL-8 secretion (ELISA) in gingival epithelial cells; format: cell-based, Human
Experimental: as §1, §2, §3

IL-8 mRNA = IL-8 mRNA levels by QPCR in OKF6/TERT cells; format: cell-based, Human; settings: IL-1β-treated cells, normalized to β2-Microglobulin, FIG. 4A
Experimental: Total cellular RNA was isolated from cultures using QIAshredder and RNeasy Mini Kit (Qiagen Valencia, Calif.). Total RNA was reversed transcribed using Superscript II reverse transcriptase kit as described by the manufacturer (Invitrogen, CA). Quantitative PCR (qPCR) was carried out using SYBR Green in a MyiQ iCycler (Bio-Rad). A total of 1 μl of cDNA (described above) was analyzed using final concentration of 100 nM of primers, 2×SYBR Green PCR Master Mix (Applied Biosystems, Foster City, Calif., USA) in volume of 20 μl. Prmer sequences were:
Amplification was carried out for 50 cycles (95° C., 15 seconds; 60° C., 60 seconds). The relative for mRNA expression in each sample was calculated based on its Ct value comparison to Ct of a housekeeping gene. […]
To examine the effect of mPE on the inflammatory response, gingival epithelial cells (the OKF6/TERT cell line) and the monocytic cell line, THP-1, were treated with rhIL-1β (100 ng/ml) in the presence of increasing concentrations (0, 2, or 5 ng/ml) of mPE. Secreted levels of IL-8 were measured by ELISA. […] This was not a result of cytotoxicity, as cell viability (as measured by XTT assay and trypan blue exclusion) was no lower than 93-96% at the highest concentration of mPE. To determine whether this was due to an effect on IL-8 secretion or on gene regulation, mRNA was isolated from treated cells IL-8 mRNA levels were quantified by QPCR. […]

P. gingivalis biofilms = assay: Activity against P. gingivalis biofilms (XTT metabolic assay, crystal violet); format: cell-based, Porphyromonas gingivalis
Experimental: Aggregatibacter actinomycetemcomitans 1005 (Aa) (obtained from Dr. Helen Schreiner, New Jersey Dental School) were cultured on TSB agar (4% trypticase soy broth, 0.6% yeast extract, 0.8% dextrose, 0.4% NaHCO3, 75 μg/mL bactracin, 5 μg/mL vancomycin) at 37° C., 10% CO2. Single colonies were inoculated to TSB broth in 75-cm^2 tissue culture flasks. Biofilm was harvest upon the 90% confluence and resuspended into 1 mL PBS. Resuspension was vortexed vigorously for 1 minute and allowed to settle for 10 minutes. The supernatant was then diluted to 2.5×10^7 before seeded to 96-well plates to obtain even biofilms. […]
To test the activity against P. gingivalis biofilms, strain 381 was grown in 96-well plates under conditions (i.e., grown in a 96-well plate for 21 days in an anaerobic chamber in Brain Heart Infusion (BHI) medium) that favor biofilm formation (Davey, Periodontol 2000, 2006, 42, 27-35). mPE was added in serial dilutions, incubated anaerobically for 24 hours, and the medium was replaced with XTT in RPMI. Metabolic activity was quantified as above. To confirm the ability of XTT to measure activity in the biofilm, the growth medium was removed, and biomass was quantified by crystal violet staining, followed by destaining and quantification of the optical density. Staining was quantified by reading A600. […]

[6] = tested on: A. actinomycetemcomitans biofilms; assay: Activity against A. actinomycetemcomitans biofilms (XTT metabolic assay, crystal violet, plating); format: cell-based, Aggregatibacter actinomycetemcomitans
Experimental: Aggregatibacter actinomycetemcomitans 1005 (Aa) (obtained from Dr. Helen Schreiner, New Jersey Dental School) were cultured on TSB agar (4% trypticase soy broth, 0.6% yeast extract, 0.8% dextrose, 0.4% NaHCO3, 75 μg/mL bactracin, 5 μg/mL vancomycin) at 37° C., 10% CO2. Single colonies were inoculated to TSB broth in 75-cm^2 tissue culture flasks. Biofilm was harvest upon the 90% confluence and resuspended into 1 mL PBS. Resuspension was vortexed vigorously for 1 minute and allowed to settle for 10 minutes. The supernatant was then diluted to 2.5×10^7 before seeded to 96-well plates to obtain even biofilms. Porphyromonas gingivalis W381 (obtained from Dr. Christopher Cutler, Stony Brook University Dental School) were cultured on TSB-blood agar (3% trypticase soy broth, 5% defibrinated sheep blood, 5 hemin, 0.5 μg/mL menadione, and 0.2 mg/mL KNO3) in an anaerobic chamber (80% N2, 10% H2, and 10% CO2) at 37° C. For biofilm formation, the same protocol as Aa under anaerobic condition was used.
Aa biofilms were cultured into 96-well plates (tissue culture treated, Falcon) for 18 hours. Serial dilutions of the mimetic compounds were made in 100 μL RPMI-1640 without Phenol red and added directly to the wells. Plates were cultured at 37° C., 10% CO2 for 24 hours. Medium was removed, and cell viability was evaluated by XTT assay using the In Vitro Toxicology Assay Kit (Sigma) according to the manufacturer's protocol. Metabolic activity was measured by reading in a plate-reader at 450 nm. […] Colonies were counted after 72 hours. […]
To quantify the activity of AMP mimetics on biofilms, the activity against two bacterial species associated with periodontitis, A. actinomycetemcomitans and P. gingivalis was measured under conditions that lead to biofilm formation (Kaplan et al., J. Bacteriol. 2003, 185, 1399-1404; Davey, Periodontol 2000, 2006, 42, 27-35). […] After 24 hours, the growth medium was replaced with RPMI (without Phenol Red) and an XTT assay was carried out to quantify the metabolic activity. Metabolic activity was quantified by measuring the OD at 450 nm and 600 nm. […]

[7] = tested on: oral pathogens, biofilm cultures of Streptococcus mutans; settings: Gram-positive and -negative, incl. S. mutans biofilm cultures; cited from earlier work
[8] = rhIL-1β 100 ng/ml, mPE 0, 2, or 5 ng/ml as printed, FIG. 3

**Q.** What does the source list for `NCCc1cc(Br)cc(C#Cc2cccc(C#Cc3cc(Br)cc(CCN)c3)c2)c1` [mPE]?
**A.** concentration sufficient to inhibit IL-1β-induced secretion of IL-8 ([1]; THP-1 cells): 2 µg/mL; inhibition of IL-8 secretion [1, 8]: dose-dependent inhibition; cell viability [2]: 93-96%; MIC (A. actinomycetemcomitans): 0.4 µg/mL (≈ 0.766 µM); MIC (P. gingivalis): 2.5 µg/mL (≈ 4.79 µM); IL-1β-stimulated phosphorylated IκB levels / total IκB [3]: reduction in activation of NF-κB; also recorded: rapid, dose-dependent reduction; LPS-mediated TNF-α production [4]: inhibited; concentration sufficient to inhibit IL-1β-induced secretion of IL-8 ([5]; gingival epithelial cells): 2 µg/mL; inhibition of IL-8 secretion [5, 8]: dose-dependent inhibition; IL-8 mRNA levels (IL-8 mRNA): inhibitory effect is at the level of gene expression; activity against biofilm cultures (P. gingivalis biofilms): potent activity; concentration at which biofilm and metabolic activity decrease to a baseline (P. gingivalis biofilms; 24 hours anaerobic, XTT and crystal violet, FIG. 2): 4 to 8 µg/mL; reduction of metabolic activity (XTT) ([6]; 2-hour exposure, 16 ng/ml, FIG. 1C): 60%; antimicrobial activity against biofilms (XTT metabolic activity) ([6]; 24 hours, FIG. 1A): potent antimicrobial activity; reduction in viable colonies (plating) and biomass (crystal violet) ([6]; FIG. 1B): reduction in viable colonies paralleled the results from the XTT assay; activity against oral pathogens [7]: active
